PMC4157654, “Orthogonal functionalisation of α-helix mimetics” (Organic & Biomolecular Chemistry, 2014)

Tests used:
[1] = molecular target: T1, Bcl-xL/BAK interaction (Homo sapiens, UniProt Q07817); assay: Fluorescence anisotropy competition assay, Bcl-xL/BAK; assay type: binding; conditions: Bcl-xL 131 nM, BODIPY-BAK 43 nM, phosphate buffer pH 7.5
T1 construct: made in house
Protocol: (§1) Figure S8 – Fluorescence anisotropy competition assay testing the inhibition of the trimers against the Bcl-x L/BAK interaction; unfunctionalised trimer 1 and acid, ethylene glycol and coumarin-functionalised trimers 2, 3 and 4. Performed in phosphate buffer pH 7.5, 200 mM NaCl, 0.02 mg/ml
BSA. Bcl-x L is fixed as 131 nM and BODIPY-BAK is at a concentration of 43 nM.
The observed increase in anisotropy is likely to be the result of aggregation of the trimer to the BAK […]
tracer and Bcl-x L complex. […]
In all experiments the G factor, or ratio between the efficiency of the S(ame) and P(erpendicular) channels was set to 1. […]

[2] = molecular target: T2, Mcl-1/NOXA-B interaction (Homo sapiens, UniProt Q07820); assay: Fluorescence anisotropy competition assay, Mcl-1/NOXA-B; assay type: binding; conditions: Mcl-1 150 nM, FITC-NOXA-B 50 nM, phosphate buffer pH 7.5
T2 construct: The pet28a His-SUMO Mcl-1 (172-327) construct was over-expressed; His (N, cleaved yes); SUMO (N, cleaved yes); made in house; host or cells: E. coli Rosetta 2
Protocol: Determination of the binding of FITC-NOXA-B to Mcl-1
The procedure followed was adapted from our previous paper on O-alkylated aromatic oligoamides.1 […]
Briefly: Mcl-1 was serially diluted (446 pM – 5 μM) into a solution of FITC-NOXA-B (25 nM) (40 […]
mM Sodium phosphate buffer pH 7.54, 200 mM NaCl, 0.02 mg/ml of bovine serum albumin) – the […]
total volume of each well was 100 μL, the plates were allowed to incubate at room temperature for 45 […]
minutes. Each experiment was run in triplicate and the fluorescence anisotropy measured using a […]
Perkin Elmer EnVisionTM 2103 MultiLabel plate reader, with excitation at 480 nm and emission at […]
535 nm ([…] bandwidth) and the intensity (Eq. 1) was calculated for each point. This was used to […]
calculate anisotropy (Eq. 2) and plotted to a sigmoidal fit in Origin 7 to determine the minimum and […]
maximum anisotropies (rmin and rmax). Using equation 3, the data for the anisotropy was converted to […]
fraction bound and multiplied by the FITC-NOXA-B concentration then fitted in origin 7 (Eq. 4) to […]
From a plot of intensity (Eq. 1) against […]
concentration of protein λ was calculated to be 1. […]
{(k + x + [FL] - {(k + x + [FL]2 - 4x[FL]} r = anisotropy, I = total intensity, P = perpendicular intensity, S = parallel intensity, Lb = fraction ligand bound, λ = Ibound/Iunbound = 1, [FL] = concentration of fluorescent ligand, k1 = Kd , y = Lb* FITC- […]
NOXA-B and x = [added titrant], G is an instrument factor set to 1.
Figure S4 - Fluorescence anisotropy titration assays for the addition of FITC-NOXA-B to a constant […]
concentration of Mcl-1. Performed in phosphate buffer pH 7.5, 200 mM NaCl, 0.02 mg/ml BSA.
In order to set up displacement assay conditions Mcl-1 and FITC-labelled NOXA-B concentrations […]
were fixed and the tracer peptide was displaced with unlabelled NOXA-B.
Figure S5 – Fluorescence anisotropy competition assay testing the inhibition of unlabelled NOXA-B […]
against the Mcl-1/NOXA-B interaction. Performed in phosphate buffer pH 7.5, 200 mM NaCl, 0.02 […]
mg/ml BSA. Mcl-1 is fixed as 150 nM and FITC-NOXA-B is at a concentration of 50 nM. […]
Figure S7 – Fluorescence anisotropy competition assay testing the inhibition of the trimers against the Mcl-1/NOXA-B interaction; unfunctionalised trimer 1 and acid, ethylene glycol and coumarin- […]
BSA. Mcl-1 is fixed as 150 nM and FITC-NOXA-B is at a concentration of 50 nM.

[3] = molecular target: T3, p53/hDM2 interaction (Homo sapiens, UniProt Q00987); assay: Fluorescence anisotropy competition assay, p53/hDM2; assay type: binding; conditions: hDM2 154 nM, FITC-p53 54.5 nM, phosphate buffer pH 7.5, 200 mM NaCl, 0.02 mg/ml BSA
T3 construct: hDM2 17-126 was diluted into buffer; made in house
Protocol: The ability of the trimers to inhibit the p53/hDM2 interaction was then investigated using a fluorescence anisotropy competition assay (Fig. 3a). Briefly, a fluorescein-labelled p53 peptide is initially bound to hDM2 and displaced by increasing concentrations of inhibitor leading to a measurable decrease in anisotropy from which IC50 values can be determined, Table 1.
(§2) Fig. 3 Fluorescence anisotropy binding assays in phosphate buffer pH 7.5, 200 mM NaCl, 0.02 mg ml^–1 BSA. (a) p53/hDM2 competition assay hDM2 is fixed as 154 nM and FITC-p53 is at a concentration of 54.5 nM. (b) Direct binding assay of trimer 5 binding to hDM2 or Mcl-1. Compound 5 is fixed at 50 nM.
as §1, with “S6” for “S8”, “p53/hDM2” for “Bcl-x L/BAK”, “mg/ml BSA. h DM2 is fixed as 154 nM and FITC-p53 is at a concentration of 54.5 nM. […]” for “mg/ml”

[4] = molecular target: T4, hDM2 (Homo sapiens, UniProt Q00987); assay: Microscale thermophoresis direct binding to hDM2; conditions: trimer fixed at 50 nM, phosphate buffer pH 7.5
T4 construct: hDM2 17-126 was diluted into buffer; made in house
Protocol: (§3) The fluorescently tagged trimers 4 and 5 were designed for use in direct binding experiments. We observed that upon ‘click’ reaction, the fluorescence of the coumarin group in trimer 4 was quenched (Fig. S14 ^†). This trimer was therefore tested in the fluorescence anisotropy competition assays as described above (Fig. S7 and S8 ^†). […] Direct binding experiments were performed using both fluorescence anisotropy (Fig. 3b) and microscale thermophoresis[52] (Fig. S12 ^†). […] The same fluorescence anisotropy experiment was then carried out for Mcl-1 and Bcl-xL. […] The absence of selectivity between hDM2 and Mcl-1 in this instance may arise as a consequence of non-specific interactions imparted by the fluorescein group – we note that K d is lower for 5 than the IC50's observed for both 2 and 3 which would support this hypothesis.
Thermophoresis Direct Binding to h DM2
Figure S12 – Direct binding of Compound 5 to hDM2 measured using thermophoresis at a fixed […]
concentration of 5 of 50 nM. […] Performed in phosphate buffer pH 7.5, 200 mM NaCl, […]
The larger errors at lower protein concentration are possibly the result of non-specific binding of the fluorescent trimer to the thermophoresis capillaries.
Fluorescence and Absorbance Characterisation of Trimers 4 and 5 […]
(1 picture or pasted object on this page, not shown here)

[5] = molecular target: T5, Bcl-xL (Homo sapiens, UniProt Q07817); assay: Fluorescence anisotropy direct binding assay, Bcl-xL; conditions: trimer fixed at 50 nM
T5 construct: made in house
Protocol: as §3
Figure S10 - Change of intensity during addition of Mcl-1 used to calculate λ.
Anisotropy Direct Binding to Bcl-x L
Figure S11 – Anisotropy direct binding of Compound 5 to Bcl-x L at a fixed concentration of 5 of 50
nM. Performed in phosphate buffer pH 7.5, 200 mM NaCl, 0.02 mg/ml BSA. […]

[6] = molecular target: T4, hDM2; assay: Fluorescence anisotropy direct binding assay, hDM2; conditions: trimer fixed at 50 nM, read-out: Kd obtained through direct titration, hDM2
Protocol: as §2
The fluorescently tagged trimers 4 and 5 were designed for use in direct binding experiments. We observed that upon ‘click’ reaction, the fluorescence of the coumarin group in trimer 4 was quenched (Fig. S14 ^†). This trimer was therefore tested in the fluorescence anisotropy competition assays as described above (Fig. S7 and S8 ^†). […] Direct binding experiments were performed using both fluorescence anisotropy (Fig. 3b) and microscale thermophoresis[52] (Fig. S12 ^†). […] The same fluorescence anisotropy experiment was then carried out for Mcl-1 and Bcl-xL. […]
Figure S8 – Fluorescence anisotropy competition assay testing the inhibition of the trimers against the Bcl-x L/BAK interaction; unfunctionalised trimer 1 and acid, ethylene glycol and coumarin-functionalised trimers 2, 3 and 4. […]
Direct Binding Assay Development hDM2 17-126 was diluted into buffer across the 24 wells from 400 μM to 36 nM. […] Ligand bound was calculated from Eq. 3 using λ =
2.06. K d was calculated from Eq. 4. […]

[7] = molecular target: T6, Mcl-1 (Homo sapiens, UniProt Q07820); assay: Fluorescence anisotropy direct binding assay, Mcl-1; conditions: trimer fixed at 50 nM, read-out: Kd obtained through direct titration, Mcl-1
T6 construct: The pet28a His-SUMO Mcl-1 (172-327) construct was over-expressed; His (N, cleaved yes); SUMO (N, cleaved yes); made in house; host or cells: E. coli Rosetta 2
Protocol: as §2, §3
Figure S9 - Change of intensity during addition of hDM2 used to calculate λ.
Mcl-1172-327 was diluted into buffer across the 24 wells from 200 μM to 18 nM. […] Ligand bound was calculated from Eq. 3 using λ =
2.31. K d was calculated from Eq. 4. […]

| IC50 Bcl-xL/BAK [1] | IC50 [2] | IC50 [3] | Kd [4] | Direct binding to Bcl-xL [5] | Kd [6] | Kd [7] | SMILES |
| --- | --- | --- | --- | --- | --- | --- | --- |
| No inhibition | > 70 µM | 20.3 ± 0.3 µM | – | – | – | – | CC(C)CN(C(=O)c1ccc(N(Cc2cccc3ccccc23)C(=O)c2ccc(NCc3ccccc3)cc2)c(OCc2cn(CCCNC(=O)c3cc4ccccc4oc3=O)nn2)c1)c1ccc(C(=O)NCC(=O)O)cc1 [Trimer 4] |
| – | – | – | 11 ± 2 µM | no binding was observed | 20 ± 6 µM | 13 ± 4 µM | CC(C)CN(C(=O)c1ccc(N(Cc2cccc3ccccc23)C(=O)c2ccc(NCc3ccccc3)cc2)c(OCc2cn(CCCNC(=S)Nc3ccc(-c4c5ccc(=O)cc-5oc5cc(O)ccc45)c(C(=O)O)c3)nn2)c1)c1ccc(C(=O)NCC(=O)O)cc1 [Trimer 5] |

Second part, the compound before the results:

| SMILES | IC50 Bcl-xL/BAK [1] | IC50 [2] | IC50 [3] | Kd [4] | Direct binding to Bcl-xL [5] | Kd [6] | Kd [7] |
| --- | --- | --- | --- | --- | --- | --- | --- |
| CC(C)CN(C(=O)c1ccc(N(Cc2cccc3ccccc23)C(=O)c2ccc(NCc3ccccc3)cc2)c(OCc2cn(CC(=O)O)nn2)c1)c1ccc(C(=O)NCC(=O)O)cc1 [Trimer 2] | No inhibition | > 70 µM | 40 ± 5 µM | – | – | – | – |
| CC(C)CN(C(=O)c1ccc(N(Cc2cccc3ccccc23)C(=O)c2ccc(NCc3ccccc3)cc2)cc1)c1ccc(C(=O)NCC(=O)O)cc1 [Trimer 1] | No inhibition | > 70 µM | 12.3 ± 0.4 µM | – | – | – | – |
| CC(C)CN(C(=O)c1ccc(N(Cc2cccc3ccccc23)C(=O)c2ccc(NCc3ccccc3)cc2)c(OCc2cn(CCOCCOCCOCCO)nn2)c1)c1ccc(C(=O)NCC(=O)O)cc1 [Trimer 3] | No inhibition | > 70 µM | 42 ± 6 µM | – | – | – | – |
